In this test the target is T1, human TRPM8 (Homo sapiens, UniProt Q7Z2W7).
T1 construct: expressed in transfected cells; host or cells: Chinese hamster ovary (CHO) cells, T-REx tetracycline-inducible system, co-transfected with aequorin
The test can be described thus: Luminescence readout assay for measuring intracellular calcium, icilin activation. It is filed as cell-based. Conditions: CHO cells expressing human TRPM8, aequorin luminescence, 1 μM icilin activation; read-out: hTRPM8 IC50. Put shortly: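 The read-out was luminescence reporting intracellular calcium, recorded by a CCD-based luminometer. Compounds were preincubated for 2.5 min before agonist challenge with 1 μM icilin. Human TRPM8 was expressed in a stable T-REx CHO line, induced with 0.5 μg/mL tetracycline the day before.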

The values that follow come from US8710043B2, “TRPM8 antagonists and their use in treatments” (Amgen Inc., priority 2011, dated 2014).

T1 sequence (Q7Z2W7 whole entry): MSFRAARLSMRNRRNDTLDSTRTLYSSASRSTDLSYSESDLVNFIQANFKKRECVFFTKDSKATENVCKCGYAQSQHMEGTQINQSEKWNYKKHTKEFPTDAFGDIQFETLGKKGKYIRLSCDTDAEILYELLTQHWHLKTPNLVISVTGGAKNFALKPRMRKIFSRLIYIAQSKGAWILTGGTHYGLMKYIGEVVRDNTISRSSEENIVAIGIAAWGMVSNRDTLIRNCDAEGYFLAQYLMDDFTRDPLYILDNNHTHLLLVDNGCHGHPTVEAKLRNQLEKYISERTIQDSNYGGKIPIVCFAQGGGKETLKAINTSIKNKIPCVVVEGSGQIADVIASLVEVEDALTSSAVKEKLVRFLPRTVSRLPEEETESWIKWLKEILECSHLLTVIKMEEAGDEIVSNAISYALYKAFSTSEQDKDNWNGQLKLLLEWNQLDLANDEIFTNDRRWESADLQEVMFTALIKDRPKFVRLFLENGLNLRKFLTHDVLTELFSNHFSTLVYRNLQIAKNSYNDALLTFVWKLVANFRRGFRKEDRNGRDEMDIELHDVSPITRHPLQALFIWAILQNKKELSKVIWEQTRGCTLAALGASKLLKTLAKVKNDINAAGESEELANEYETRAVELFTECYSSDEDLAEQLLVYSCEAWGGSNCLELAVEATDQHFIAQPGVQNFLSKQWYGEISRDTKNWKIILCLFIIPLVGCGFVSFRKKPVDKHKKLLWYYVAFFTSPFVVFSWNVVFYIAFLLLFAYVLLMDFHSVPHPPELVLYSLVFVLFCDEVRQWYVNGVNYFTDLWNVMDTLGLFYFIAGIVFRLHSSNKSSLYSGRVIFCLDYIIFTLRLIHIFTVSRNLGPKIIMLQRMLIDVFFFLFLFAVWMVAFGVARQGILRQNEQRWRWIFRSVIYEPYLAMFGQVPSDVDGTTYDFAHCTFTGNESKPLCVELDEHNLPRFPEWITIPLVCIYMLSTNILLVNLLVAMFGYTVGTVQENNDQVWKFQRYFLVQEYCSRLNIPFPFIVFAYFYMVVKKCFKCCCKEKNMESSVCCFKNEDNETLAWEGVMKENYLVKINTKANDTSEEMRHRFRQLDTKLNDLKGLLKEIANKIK

By IC50 is commonly meant the concentration that gives 50% inhibition. With `CC1(C)C[C@H]1c1cccnc1[C@@H](NC(=O)c1ccc2cccnc2c1)c1ccc(C(F)(F)F)cc1` [Example 232, N-((S)-(3-((R)-2,2-dimethylcyclopropyl)pyridin-2-yl)(4-(trifluoromethyl)phenyl)methyl)quinoline-7-carboxamide], the 50% inhibitory concentration (IC50) was found to be 15.9 nM.

Consider `O=C(N[C@@H](c1ccc(C(F)(F)F)c(F)c1)c1ncccc1C(F)(F)F)[C@H]1CCCO1` [Example 123, (R)-N-((S)-(3-fluoro-4-(trifluoromethyl)phenyl)(3-(trifluoromethyl)pyridin-2-yl)methyl)THF-2-carboxamide], for which the IC50 came to 149 nM.

Consider `O=C(N[C@@H](c1ccc(C(F)(F)F)cc1)c1ncccc1C(F)(F)F)c1cncc(O)c1` [Example 58, (S)-5-hydroxy-N-((4-(trifluoromethyl)phenyl)(3-(trifluoromethyl)pyridin-2-yl)methyl)nicotinamide], for which the half-inhibitory concentration (IC50) came out at 63.9 nM.

Turning to `Cc1cc([C@H](NC(=O)c2ccc(=O)[nH]c2)c2ncccc2F)ccc1F` [Example 338, (S)-N-((4-fluoro-3-methylphenyl)(3-fluoropyridin-2-yl)methyl)-6-oxo-1,6-dihydropyridine-3-carboxamide], the concentration for half-maximal inhibition (IC50) was 264 nM. The figure for `O=C(CCc1c[nH]cn1)N[C@@H](c1ccc(C(F)(F)F)cc1)c1ncccc1C(F)(F)F` [Example 155, (S)-3-(1H-imidazol-4-yl)-N-((4-(trifluoromethyl)phenyl)(3-(trifluoromethyl)pyridin-2-yl)methyl)propanamide 2,2,2-trifluoroacetate] is 1440 nM; for `O=C(N[C@@H](c1ccc(OC(F)(F)F)cc1)c1ncccc1F)c1ccc(-c2nc(=O)o[nH]2)cc1` [Example 316, (S)-N-((3-fluoropyridin-2-yl)(4-(trifluoromethoxy)phenyl)methyl)-4-(5-oxo-2,5-dihydro-1,2,4-oxadiazol-3-yl)benzamide] it is 31.4 nM. For the compound `O=C(NC(c1ccc(F)cc1)c1ccc(OC(F)(F)F)c(F)c1)c1ccc(=O)[nH]c1` (centres unmarked) [Example 411, N-((3-fluoro-4-(trifluoromethoxy)phenyl)(4-fluorophenyl)methyl)-6-oxo-1,6-dihydropyridine-3-carboxamide], the IC50 turned out to be 140 nM.

`O=C(N[C@@H](c1ccc(C(F)(F)F)cc1)c1ncccc1C(F)(F)F)c1ccc(Cl)nc1` [Example 135, (S)-6-chloro-N-((4-(trifluoromethyl)phenyl)(3-(trifluoromethyl)pyridin-2-yl)methyl)nicotinamide]: the IC50 is 19.4 nM. The figure for `O=C(N[C@@H](c1cc(F)cc(F)c1)c1ncccc1F)c1ccc(=O)[nH]c1` [Example 329, (S)-N-((3,5-difluorophenyl)(3-fluoropyridin-2-yl)methyl)-6-oxo-1,6-dihydropyridine-3-carboxamide] is 841 nM; for `COC(=O)c1cccc(C(=O)N[C@@H](c2ccc(C(F)(F)F)cc2)c2ncccc2C(F)(F)F)c1` [Example 189, (S)-methyl 3-(((4-(trifluoromethyl)phenyl)(3-(trifluoromethyl)pyridin-2-yl)methyl)carbamoyl)benzoate] it is 80.6 nM.

For `Cc1cc([C@H](NC(=O)c2ccc(=O)[nH]c2)c2ncccc2F)cc(C(F)(F)F)c1` [Example 333, (S)-N-((3-fluoropyridin-2-yl)(3-methyl-5-(trifluoromethyl)phenyl)methyl)-6-oxo-l,6-dihydropyridine-3-carboxamide], the IC50 came to 658 nM. As to `O=C1CC(C(=O)N[C@@H](c2ccc(C(F)(F)F)cc2)c2ncccc2C(F)(F)F)CN1` (stereo partly drawn) [Example 163, 5-oxo-N-((S)-(4-(trifluoromethyl)phenyl)(3-(trifluoromethyl)pyridin-2-yl)methyl)pyrrolidine-3-carboxamide], the half-inhibitory concentration (IC50) was 3180 nM.

As for `O=C(N[C@@H](c1ccc(OC(F)(F)F)c(F)c1)c1ncccc1F)c1ccc[nH]c1=O` [Example 416, (S)-N-((3-fluoro-4-(trifluoromethoxy)phenyl)(3-fluoropyridin-2-yl)methyl)-2-oxo-1,2-dihydropyridine-3-carboxamide], the IC50 was determined as 54 nM. `CO[C@@](C(=O)N[C@@H](c1ccc(C(F)(F)F)cc1)c1ncccc1C(F)(F)F)(c1ccccc1)C(F)(F)F` [Example 237, 3,3,3-trifluoro-2-methoxy-2-phenyl-N-((S)-(4-(trifluoromethyl)phenyl)(3-(trifluoromethyl)pyridin-2-yl)methyl)propanamide]: the IC50 was determined as 733 nM. For `Cc1ncc(C(=O)N[C@@H](c2ccc(C(F)(F)F)cc2)c2ncccc2C(F)(F)F)c(N)n1` [Example 137, (S)-4-amino-2-methyl-N-((4-(trifluoromethyl)phenyl)(3-(trifluoromethyl)pyridin-2-yl)methyl)pyrimidine-5-carboxamide], the IC50 amounted to 94.9 nM.

Take `O=C(N[C@@H](c1ccc(OC(F)(F)F)cc1)c1ncccc1F)c1ccn2ccnc2c1` [Example 88, (S)-N-((3-fluoropyridin-2-yl)(4-(trifluoromethoxy)phenyl)methyl)imidazo[1,2-a]pyridine-7-carboxamide]: the IC50 stood at 12.1 nM.

On to `O=C(N[C@@H](c1ccc(C(F)(F)F)c(F)c1)c1ncccc1C(F)(F)F)c1ccc2ncccc2c1` [Example 130, (S)-N-((3-fluoro-4-(trifluoromethyl)phenyl)(3-(trifluoromethyl)pyridin-2-yl)methyl)quinoline-6-carboxamide bis (2,2,2-trifluoroacetate)], for which the IC50 came out at 24.7 nM. The figure for `CC(C)(C)OC(=O)N1CCCC(C(=O)N[C@@H](c2ccc(C(F)(F)F)cc2)c2ncccc2C(F)(F)F)C1` (stereo partly drawn) [Example 142, tert-butyl 3-(((S)-(4-(trifluoromethyl)phenyl)(3-(trifluoromethyl)pyridin-2-yl)methyl)carbamoyl)piperidine-1-carboxylate] is 144 nM; for `N#Cc1ccc(C(=O)N[C@@H](c2ccc(C(F)(F)F)cc2)c2ncccc2F)cc1` [Example 167, (S)-4-cyano-N-((3-fluoropyridin-2-yl)(4-(trifluoromethyl)phenyl)methyl)benzamide] it is 21.5 nM; for `O=C(N[C@@H](c1ccc(C(F)(F)F)cc1)c1ncccc1C(F)(F)F)c1ccc(=O)[nH]n1` [Example 150, (S)-6-oxo-N-((4-(trifluoromethyl)phenyl)(3-(trifluoromethyl)pyridin-2-yl)methyl)-1,6-dihydropyridazine-3-carboxamide] it is 178 nM. Consider `COc1cnccc1C(=O)N[C@@H](c1ccc(C(F)(F)F)cc1)c1ncccc1C(F)(F)F` [Example 48, (S)-3-methoxy-N-((4-(trifluoromethyl)phenyl)(3-(trifluoromethyl)pyridin-2-yl)methyl)isonicotinamide], for which the IC50 was 21.5 nM. As to `COc1cc(C(=O)N[C@@H](c2ccc(C(F)(F)F)cc2)c2ncccc2C(F)(F)F)ccn1` [Example 34, (S)-2-methoxy-N-((4-(trifluoromethyl)phenyl)(3-(trifluoromethyl)pyridin-2-yl)methyl)isonicotinamide], the IC50 turned out to be 32.2 nM. Take `O=C(O)c1ccc(C(=O)N[C@@H](c2ccc(OC(F)(F)F)cc2)c2ncccc2F)nc1` [Example 272, (S)-6-(((3-Fluoropyridin-2-yl)(4-(trifluoromethoxy)phenyl)-methyl)carbamoyl)nicotinic Acid]: the half-inhibitory concentration (IC50) came to 11.9 nM.
